# Test results reported in patent US20240261375A1, “PHARMACEUTICAL COMPOSITION FOR TREATING OR PREVENTING DISORDER ASSOCIATED WITH ADMINISTRATION OF ANTICANCER AGENT” (LTT BIO-PHARMA CO., LTD., priority 2021, published 2024).
# Key:
# [1] = system: OXA-induced allodynia model rats; experiment: Cold stimulation (acetone) test in OXA-induced allodynia model rats; format: in vivo, rat; conditions: OXA 10 mg/kg i.p. Days 1 and 2; PC-SOD 1 mg/kg caudal vein, prophylactic; FIG. 2
# Description: Five-week-old male SD rats (from 200 to 400 g) were used as laboratory animals, and OXA was administered into the peritoneal cavity of rats at a dose of 10 mg/kg. A total of two doses were given (Days 1 and 2). A solvent for OXA, i.e., a 5% glucose solution, was similarly administered to a control group.
# Laboratory animals were divided into three groups (n=8 per group): a control group, an OXA administration group, and a group receiving administration of OXA and PC-SOD 1 mg/kg (OXA+PC-SOD administration group). For the OXA+PC-SOD administration group, PC-SOD was administered into the caudal vein from 15 minutes after administration of OXA as prophylactic administration. A total of two doses were given (Days 1 and 2). A solvent for PC-SOD was similarly administered to the control group and the OXA administration group.
# Rats were placed in a container with a wire net bottom and acclimatized for 30 minutes, and then 0.1 mL of acetone was sprayed onto their hindlimb by using a spray for an organic solvent (No. 3530, Furupla Co., Ltd.) to give a cold stimulus by utilizing a cooling action at the time of vaporization of acetone. […] Specifically, the responses were assessed by scoring with four levels (Scores 0, 1, 2, and 3). Score 0 was to be given if animals were unresponsive as in a resting state. […]
# [2] = system: intraepidermal nerve fiber of OXA-treated rats; experiment: Assessment of density of intraepidermal nerve fiber (PGP9.5 staining); format: in vivo, rat; conditions: OXA+PC-SOD 1 mg/kg; FIG. 3
# Description: Rat epidermis tissue was fixed with a 4% paraformaldehyde fixative and washed with PBS 24 hours later, and a frozen block was prepared. A frozen slice having a thickness of 50 μm was prepared from the prepared block by using Cryostat (CM3050S, Leica Biosystems), and a 0.2% Triton-X solution was added as permeabilization treatment to allow the mixture to react for 10 minutes. Nerve fiber was allowed to react with Anti-PGP9.5 antibody (Ultraclone Ltd.) at 4° C. overnight, then it was washed with PBST, and allowed to react with a secondary fluorescence antibody (Goat anti-Rabbit IgG Alexa Fluor 488, Invitrogen). After the reaction was done at room temperature for one hour, the nerve fiber was washed, rinsed, followed by dropwise addition of […] with DAPI H-1200 (Vector Laboratories), and enclosed, and two to three images of each sample captured at 200-fold magnification were saved (Scale bar=100 μm) by using a fluorescence microscope BZ-X800 (Keyence Corporation).
# [3] = system: L5 DRG neurons of OXA-treated rats; experiment: Assessment of pathological damage to DRG (HE staining); format: in vivo, rat; conditions: OXA+PC-SOD 1 mg/kg; FIG. 4
# Excerpt: A tissue of L5 DRG neuron was collected, stored in a 10% neutral buffered formalin solution, fixed, and then washed with PBS. The tissue was subjected to 70% ethanol substitution to prepare a paraffin block, and the block was thinly sliced and subjected to HE staining. The thickness of the thinly sliced sample block was from 2 to 3 μm. By using the prepared pathological sample slide, one to three images of each sample were captured at 200 and 400-fold magnifications by the optical microscope function of All-in-One Fluorescence Microscope (BZ-X800, Keyence Corporation). Multinucleation of the nucleolus of DRG neurons and abnormal morphology of the nucleolus were assessed as indicators of DRG neuron disorder (Scale bar=50 μm).
# [4] = system: liver of OXA-treated rats; experiment: Pathological assessment of liver disorder caused by oxaliplatin (HE staining); format: in vivo, rat; conditions: PC-SOD 1 mg/kg, mangafodipir dose not given, FIG. 5
# Excerpt: A liver tissue was collected and fixed with 10% neutral buffered formalin to prepare a paraffin block by using Histos 5 (Milestone) and an embedding center (EG1160, Leica). The sample block was thinly sliced at a thickness of 3 μm by using a microtome (MR2245, Leica) to prepare a slide. The prepared slide was stained by HE staining, enclosed, and observed at 200 and 400-fold magnifications by using the optical microscope function of All-in-One Fluorescence Microscope (BZ-X800, Keyence Corporation). Observation and assessment were performed by observing the whole section. Two to four representative tissue images were randomly taken up, and alteration in the tissue structure, such as inflammation and necrosis, was observed and assessed (Scale bar=200 μm).
# [5] = system: Large intestine cancer cells (colo320, HCT116); experiment: Proliferation of large intestine cancer cells (CCK-8); format: cell-based; conditions: OXA dilutions + PC-SOD 50 μg/mL, 72 hours; FIG. 6
# Description: Large intestine cancer cells (colo320, HCT116) were added to RPM1640 medium (Thermo Fisher Scientific Inc.) containing 10% fetal bovine serum and 100 units/mL penicillin-streptomycin (Gibco BRL) and cultured at 37° C. in a 5% CO2 incubator.
# Cells were seeded on a 96-well plate at 10 000 cells/well and treated with a test solution 24 hours later. A test solution containing OXA alone was diluted 3-fold from 100 μM (10 levels) and added to a 96-well plate. A test solution containing OXA+PC-SOD was obtained by adding the same concentrations of OXA to PC-SOD (50 μg/mL) (n=3 per group). After cells were cultured for 72 hours, a CCK-8 solution was added in a volume of 1/10 of the solution in each well, and the mixture was measured at 490 nm of absorbance (Tecan, Tecan Japan). Data were expressed with mean±standard error (SEM). It should be noted that experiment conditions were allowed to be changed as required.
# [6] = system: RAW cells; experiment: Toxicity of anticancer agents against RAW cells (CellTiter-Glo viable cell count); format: cell-based; conditions: gemcitabine, oxaliplatin, cisplatin or carboplatin with simultaneous PC-SOD, 24 hours; FIG. 12-2
# Description: RAW cells were seeded on a 96-well plate at 20 000 cells/well (D-MEM high glucose medium containing 10% inactivated FBS). […] The number of viable cells was counted 24 hours later by measuring chemical luminescence by using CellTiter-Glo™ 2.0 Cell Viability Assay (Promega) and a plate reader (Tecan, Infinite M Plex). Cells for four wells were analyzed for each group.
substance,measurement,setting,value
lecithinized superoxide dismutase [PC-SOD],increase in score for cold stimulus (acetone test),[1],significantly suppressed
same,decrease in density of intraepidermal nerve fiber caused by OXA,[2],a suppressive effect on the decrease in density of intraepidermal nerve fiber caused by OXA was observed
same,pathological damage to DRG caused by OXA (multinucleation and abnormal morphology of nucleoli),[3],a suppressive effect on pathological damage to DRG caused by OXA was shown
same,necrosis of liver cells caused by OXA,[4],a suppressive effect on necrosis of liver cells caused by OXA was shown
same,influence on the anti-tumor effect of oxaliplatin (cell proliferation),[5],did not affect the anti-tumor effect of oxaliplatin
same,anticancer agent-dependent decrease in number of viable RAW cells,[6],significantly suppressed the anticancer agent-dependent decreases in the number of viable cells dependently on the concentration of PC-SOD
